# Test results reported in ChEMBL document CHEMBL3885861, “Open TG-GATES”.
# Organism: Rattus norvegicus
# Assay: Open TG-GATES - Regimen: Single
# Assay type: toxicity, organism-based, Sprague-Dawley
# Design: regimen Single, gender Male, age 6 weeks
# Settings: in vivo, po, 100 mg/kg, route gavage, dose level Middle; for APTT / Bas / Eos / Fbg / Hb / Ht / Lym / MCHC / MCV / Mono / Neu / PT / Plat / RBC / Ret / WBC: tissue Blood; for KIDNEY_L / KIDNEY_R / KIDNEY_TOTAL: tissue Kidney; for LIVER: tissue Liver; for ALP / ALT / AST / BUN / CRE / Ca / Cl / DBIL / GLC / IP / K / LDH / Na / PL / RALB / TBIL / TC / TG / TP / gamma-GTP: tissue Plasma
compound,measurement,setting,value
CS(=O)(=O)Nc1ccc([N+](=O)[O-])cc1Oc1ccccc1 [NIMESULIDE],TERMINAL_BW,3 h,203.6 g
same,APTT,3 h,16.7 s
same,Bas,3 h,0%
same,Eos,3 h,1.2%
same,Fbg,3 h,201.6 mg/dL
same,Hb,3 h,13.1 g/dL
same,Ht,3 h,38.3%
same,Lym,3 h,71.4%
same,MCHC,3 h,34.3%
same,MCV,3 h,65.8 fL
same,Mono,3 h,8.2%
same,Neu,3 h,19.2%
same,PT,3 h,12.2 s
same,Plat,3 h,110 x10_4/uL
same,RBC,3 h,582.2 x10_4/ul
same,Ret,3 h,11.3%
same,WBC,3 h,87.9 x10_2/uL
same,KIDNEY_L,3 h,0.9 g
same,KIDNEY_R,3 h,0.9 g
same,KIDNEY_TOTAL,3 h,1.8 g
same,LIVER,3 h,9.5 g
same,ALP,3 h,901.6 IU/L
same,ALT,3 h,36.2 IU/L
same,AST,3 h,66.6 IU/L
same,BUN,3 h,14 mg/dL
same,CRE,3 h,0.6 mg/dL
same,Ca,3 h,11 mg/dL
same,Cl,3 h,105.8 meq/L
same,DBIL,3 h,0.06 mg/dL
same,GLC,3 h,233.2 mg/dL
same,IP,3 h,9.6 mg/dL
same,K,3 h,5 meq/L
same,LDH,3 h,93.8 IU/L
same,Na,3 h,140.2 meq/L
same,PL,3 h,145.4 mg/dL
same,RALB,3 h,3.9 g/dL
same,TBIL,3 h,0.4 mg/dL
same,TC,3 h,85.2 mg/dL
same,TG,3 h,54.8 mg/dL
same,TP,3 h,5.2 g/dL
same,gamma-GTP,3 h,1 IU/L
same,TERMINAL_BW,6 h,202.6 g
same,APTT,6 h,18.2 s
same,Bas,6 h,0%
same,Eos,6 h,1%
same,Fbg,6 h,211.2 mg/dL
same,Hb,6 h,13.2 g/dL
same,Ht,6 h,39.2%
same,Lym,6 h,73.2%
same,MCHC,6 h,33.6%
same,MCV,6 h,65.7 fL
same,Mono,6 h,4.4%
same,Neu,6 h,21.8%
same,PT,6 h,12.4 s
same,Plat,6 h,119.2 x10_4/uL
same,RBC,6 h,596.6 x10_4/ul
same,Ret,6 h,9%
same,WBC,6 h,69.4 x10_2/uL
same,KIDNEY_L,6 h,0.9 g
same,KIDNEY_R,6 h,1 g
same,KIDNEY_TOTAL,6 h,1.9 g
same,LIVER,6 h,8.6 g
same,ALP,6 h,733.2 IU/L
same,ALT,6 h,36.4 IU/L
same,AST,6 h,67.2 IU/L
same,BUN,6 h,14.8 mg/dL
same,CRE,6 h,0.7 mg/dL
same,Ca,6 h,10.5 mg/dL
same,Cl,6 h,103.4 meq/L
same,DBIL,6 h,0.072 mg/dL
same,GLC,6 h,258 mg/dL
same,IP,6 h,10.4 mg/dL
same,K,6 h,4.3 meq/L
same,LDH,6 h,79.6 IU/L
same,Na,6 h,139.8 meq/L
same,PL,6 h,132.8 mg/dL
same,RALB,6 h,3.7 g/dL
same,TBIL,6 h,0.5 mg/dL
same,TC,6 h,79.8 mg/dL
same,TG,6 h,28 mg/dL
same,TP,6 h,5.3 g/dL
same,gamma-GTP,6 h,1.6 IU/L
same,TERMINAL_BW,9 h,194.5 g
same,APTT,9 h,19.5 s
same,Bas,9 h,0%
same,Eos,9 h,0.6%
same,Fbg,9 h,214.8 mg/dL
same,Hb,9 h,13.6 g/dL
same,Ht,9 h,40.6%
same,Lym,9 h,79.2%
same,MCHC,9 h,33.5%
same,MCV,9 h,65.2 fL
same,Mono,9 h,6%
same,Neu,9 h,14.4%
same,PT,9 h,12.5 s
same,Plat,9 h,117.1 x10_4/uL
same,RBC,9 h,621.8 x10_4/ul
same,Ret,9 h,11.2%
same,WBC,9 h,80.5 x10_2/uL
same,KIDNEY_L,9 h,0.9 g
same,KIDNEY_R,9 h,0.9 g
same,KIDNEY_TOTAL,9 h,1.8 g
same,LIVER,9 h,7.9 g
same,ALP,9 h,917.4 IU/L
same,ALT,9 h,32.8 IU/L
same,AST,9 h,62.4 IU/L
same,BUN,9 h,12.6 mg/dL
same,CRE,9 h,0.6 mg/dL
same,Ca,9 h,10.6 mg/dL
same,Cl,9 h,107.2 meq/L
same,DBIL,9 h,0.018 mg/dL
same,GLC,9 h,234 mg/dL
same,IP,9 h,9.5 mg/dL
same,K,9 h,5 meq/L
same,LDH,9 h,72 IU/L
same,Na,9 h,138.2 meq/L
same,PL,9 h,137.8 mg/dL
same,RALB,9 h,4 g/dL
same,TBIL,9 h,0.4 mg/dL
same,TC,9 h,77.8 mg/dL
same,TG,9 h,28.6 mg/dL
same,TP,9 h,5.4 g/dL
same,gamma-GTP,9 h,1 IU/L
same,TERMINAL_BW,24 h,205.9 g
same,APTT,24 h,17.2 s
same,Bas,24 h,0%
same,Eos,24 h,1%
same,Fbg,24 h,216.6 mg/dL
same,Hb,24 h,13.8 g/dL
same,Ht,24 h,40.7%
same,Lym,24 h,69%
same,MCHC,24 h,33.7%
same,MCV,24 h,64.1 fL
same,Mono,24 h,6.8%
same,Neu,24 h,23.4%
same,PT,24 h,12 s
same,Plat,24 h,116.2 x10_4/uL
same,RBC,24 h,636.2 x10_4/ul
same,Ret,24 h,10%
same,WBC,24 h,104.6 x10_2/uL
same,KIDNEY_L,24 h,0.9 g
same,KIDNEY_R,24 h,0.9 g
same,KIDNEY_TOTAL,24 h,1.9 g
same,LIVER,24 h,10.2 g
same,ALP,24 h,976.6 IU/L
same,ALT,24 h,37.2 IU/L
same,AST,24 h,66.8 IU/L
same,BUN,24 h,20.8 mg/dL
same,CRE,24 h,0.6 mg/dL
same,Ca,24 h,10.7 mg/dL
same,Cl,24 h,106.6 meq/L
same,DBIL,24 h,0.024 mg/dL
same,GLC,24 h,185.6 mg/dL
same,IP,24 h,6.6 mg/dL
same,K,24 h,4.9 meq/L
same,LDH,24 h,105.6 IU/L
same,Na,24 h,140.4 meq/L
same,PL,24 h,148 mg/dL
same,RALB,24 h,3.9 g/dL
same,TBIL,24 h,0.3 mg/dL
same,TC,24 h,81.6 mg/dL
same,TG,24 h,110.6 mg/dL
same,TP,24 h,5.4 g/dL
same,gamma-GTP,24 h,1.8 IU/L
